Assay results: US12404285B2, “KRAS G12D proteolysis targeting chimeras” (PAQ Therapeutics Inc., priority 2022, dated 2025)

Each molecule was assayed against T1, KRAS (G12D)-HiBit in AsPc-1-KRAS (G12D)-HiBit-KI cell (Homo sapiens, UniProt P01116, G12D) (assay: G12D HiBit assay). Settings: 24 hours compound treatment, absolute DC50, read-out: Average PHA DC50.
T1 construct: host or cells: AsPc-1-KRAS (G12D)-HiBit-KI cells (knock-in line)
Type: cell-based
Outline: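 AsPc-1 cells with HiBiT knocked into KRAS G12D, seeded at 5×10^3/well and held overnight, then treated 24 h with 10-point 3-fold dilutions (300 nM to 0.015 nM). Lytic Nano-Glo HiBiT luminescence expressed as % of 0.1% DMSO control; absolute DC50 from curve fit.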

T1 sequence (P01116 1-188 isoform P01116-2 G12D): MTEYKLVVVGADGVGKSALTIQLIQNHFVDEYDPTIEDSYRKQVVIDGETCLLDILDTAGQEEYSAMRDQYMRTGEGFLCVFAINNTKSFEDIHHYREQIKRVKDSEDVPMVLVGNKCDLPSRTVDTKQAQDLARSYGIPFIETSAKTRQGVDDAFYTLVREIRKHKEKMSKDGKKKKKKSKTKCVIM

DC50 [nM] | Structure (SMILES)
≥ 300 | C#Cc1c(F)ccc2cccc(-c3ncc4c(N5CC6CCC(C5)N6)nc(OC[C@@]56CCCN5[C@H](COC(=O)NCCCC(=O)N5CCN(c7cccc8c7n(C)c(=O)n8C7CCC(=O)NC7=O)CC5)CC6)nc4c3F)c12 (stereo partly drawn) [Compound 110, ((3S,7aS)-7a-(((4-((1R,5S)-3,8-Diazabicyclo[3.2.1]octan-3-yl)-7-(8-ethynyl-7-fluoronaphthalen-1-yl)-8-fluoropyrido[4,3-d]pyrimidin-2-yl)oxy)methyl)hexahydro-1H-pyrrolizin-3-yl)methyl(4-(4-(1-(2,6-dioxopiperidin-3-yl)-3-methyl-2-oxo-2,3-dihydro-1H-benzo[d]imidazol-4-yl)piperazin-1-yl)-4-oxobutyl)carbamate]
< 100 | C#Cc1c(F)ccc2cccc(-c3ncc4c(N5CC6CCC(C5)N6)nc(OC[C@@]56CCCN5[C@H](COC(=O)N5CCC(OC7CCN(c8cccc9c8n(C)c(=O)n9C8CCC(=O)NC8=O)CC7)CC5)CC6)nc4c3F)c12 (stereo partly drawn) [Compound 99, [(3S,8S)-8-[[4-(3,8-Diazabicyclo[3.2.1]octan-3-yl)-7-(8-ethynyl-7-fluoro-1-naphthyl)-8-fluoro-pyrido[4,3-d]pyrimidin-2-yl]oxymethyl]-1,2,3,5,6,7-hexahydropyrrolizin-3-yl]methyl 4-[[1-[1-(2,6-dioxo-3-piperidyl)-3-methyl-2-oxo-benzimidazol-4-yl]-4-piperidyl]oxy]piperidine-1-carboxylate]
< 100 | C#Cc1c(F)ccc2cccc(-c3ncc4c(N5CC6CCC(C5)N6)nc(OC[C@@]56CCCN5[C@H](COC(=O)N5CCC(OCCCC#Cc7ccc8c(c7)n(C)c(=O)n8C7CCC(=O)NC7=O)CC5)CC6)nc4c3F)c12 (stereo partly drawn) [Compound 114, [(3S,8S)-8-[[4-(3,8-Diazabicyclo[3.2.1]octan-3-yl)-7-(8-ethynyl-7-fluoro-1-naphthyl)-8-fluoro-pyrido[4,3-d]pyrimidin-2-yl]oxymethyl]-1,2,3,5,6,7-hexahydropyrrolizin-3-yl]methyl 4-[5-[1-(2,6-dioxo-3-piperidyl)-3-methyl-2-oxo-benzimidazol-5-yl]pent-4-ynoxy]piperidine-1-carboxylate]
< 100 | C#Cc1c(F)ccc2cccc(-c3ncc4c(N5CC6CCC(C5)N6)nc(OC[C@@]56CCCN5[C@H](COC(=O)N5CC[C@@H](CN7CCC(c8ccc9c(c8)n(C)c(=O)n9C8CCC(=O)NC8=O)CC7)C5)CC6)nc4c3F)c12 (stereo partly drawn) [Compound 81, [(3S,8S)-8-[[4-(3,8-Diazabicyclo[3.2.1]octan-3-yl)-7-(8-ethynyl-7-fluoro-1-naphthyl)-8-fluoro-pyrido[4,3-d]pyrimidin-2-yl]oxymethyl]-1,2,3,5,6,7-hexahydropyrrolizin-3-yl]methyl (3S)-3-[[4-[1-(2,6-dioxo-3-piperidyl)-3-methyl-2-oxo-benzimidazol-5-yl]-1-piperidyl]methyl]pyrrolidine-1-carboxylate]

Second part, the molecule before the results:

Structure (SMILES) | DC50 [nM]
C#Cc1c(F)ccc2cccc(-c3ncc4c(N5CC6CCC(C5)N6)nc(OC[C@@]56CCCN5[C@H](COC(=O)N5CCC(OCCCCCCc7cccc8c7n(C)c(=O)n8C7CCC(=O)NC7=O)CC5)CC6)nc4c3F)c12 (stereo partly drawn) [Compound 58, [(3S,8S)-8-[[4-(3,8-Diazabicyclo[3.2.1]octan-3-yl)-7-(8-ethynyl-7-fluoro-1-naphthyl)-8-fluoro-pyrido[4,3-d]pyrimidin-2-yl]oxymethyl]-1,2,3,5,6,7-hexahydropyrrolizin-3-yl]methyl 4-[6-[1-(2,6-dioxo-3-piperidyl)-3-methyl-2-oxo-benzimidazol-4-yl]hexoxy]piperidine-1-carboxylate] | < 100
C#Cc1c(F)ccc2cccc(-c3ncc4c(N5CC6CCC(C5)N6)nc(OC[C@@]56CCCN5[C@H](COC(=O)N5CCC(N7CCN(Cc8cccc9c8n(C)c(=O)n9C8CCC(=O)NC8=O)CC7)CC5)CC6)nc4c3F)c12 (stereo partly drawn) [Compound 53, [(3S,8S)-8-[[4-(3,8-diazabicyclo [3.2.1]octan-3-yl)-7-(8-ethynyl-7-fluoro-1-naphthyl)-8-fluoro-pyrido[4,3-d]pyrimidin-2-yl]oxymethyl]-1,2,3,5,6,7-hexahydropyrrolizin-3-yl]methyl4-[4-[[1-(2,6-dioxo-3-piperidyl)-3-methyl-2-oxo-benzimidazol-4-yl]methyl]piperazin-1-yl]piperidine-1-carboxylate] | < 100
C#Cc1c(F)ccc2cccc(-c3ncc4c(N5CC6CCC(C5)N6)nc(OC[C@@]56CCCN5[C@H](COC(=O)N5CC(CN7CCN(c8ccc9c(c8)n(C)c(=O)n9C8CCC(=O)NC8=O)CC7)C5)CC6)nc4c3F)c12 (stereo partly drawn) [Compound 42] | < 100
C#Cc1c(F)ccc2cccc(-c3ncc4c(N5CC6CCC(C5)N6)nc(OC[C@@]56CCCN5[C@H](COC(=O)N5CCC(OCc7cccc8c7n(C)c(=O)n8C7CCC(=O)NC7=O)CC5)CC6)nc4c3F)c12 (stereo partly drawn) [Compound 37, [(3S,8S)-8-[[4-(3,8-Diazabicyclo[3.2.1]octan-3-yl)-7-(8-ethynyl-7-fluoro-1-naphthyl)-8-fluoro-pyrido[4,3-d]pyrimidin-2-yl]oxymethyl]-1,2,3,5,6,7-hexahydropyrrolizin-3-yl]methyl4-[[1-(2,6-dioxo-3-piperidyl)-3-methyl-2-oxo-benzimidazol-4-yl]methoxy]piperidine-1-carboxylate] | 100 to 300
C#Cc1c(F)ccc2cccc(-c3ncc4c(N5CC6CCC(C5)N6)nc(OC[C@@]56CCCN5[C@H](COC(=O)N5CCC(CCn7cc(-c8ccc9c(c8)n(C)c(=O)n9C8CCC(=O)NC8=O)nn7)CC5)CC6)nc4c3F)c12 (stereo partly drawn) [Compound 95, [(3S,8S)-8-[[4-(3,8-Diazabicyclo[3.2.1]octan-3-yl)-7-(8-ethynyl-7-fluoro-1-naphthyl)-8-fluoro-pyrido[4,3-d]pyrimidin-2-yl]oxymethyl]-1,2,3,5,6,7-hexahydropyrrolizin-3-yl]methyl 4-[2-[4-[1-(2,6-dioxo-3-piperidyl)-3-methyl-2-oxo-benzimidazol-5-yl]triazol-1-yl]ethyl]piperidine-1-carboxylate] | ≥ 300
